# Reference: article PMC10879537 (Nature Communications, 2024)
# “And” between values parts separate entries of the source, which are not always exact repeats. Equal values may be shown once. Read-outs that look alike come from different tables or passages of the source.
# Tests used:
# [1] = tested on: MERS-CoV pseudotyped virus; assay: microbe, parasite or virus in culture; format: cell-based
# GX_P2V [2] = assay: organism not typed; format: cell-based, Guangxi pangolin-CoV (GX_P2V)
# [3] = tested on: SARS-CoV-2 live virus (SARS-CoV-2/WH-09/human/2020/CHN); assay: microbe, parasite or virus in culture; format: cell-based
# [4] = tested on: SARS-CoV pseudotyped virus; assay: microbe, parasite or virus in culture; format: cell-based; details: for EC50: read-out: EC50 against SARS-CoV pseudotyped virus
# [5] = tested on: SARS-CoV-2 pseudotyped virus; assay: microbe, parasite or virus in culture; format: cell-based
# SARS-CoV-2 trVLP [6] = tested on: SARS-CoV-2 trVLP
# PEDV strain CV777 = assay: microbe, parasite or virus in culture; format: cell-based, porcine epidemic diarrhea virus (PEDV)
# [7] = tested on: SADS-CoV strain CN/GDWT/2017; assay: cells; format: cell-based, swine acute diarrhoea syndrome coronavirus (SADS-CoV)
# GX_P2V [8] = assay: organism not typed; format: cell-based, Guangxi pangolin-CoV (GX_P2V); remark: listed apart in the source
# SARS-CoV-2 trVLP [9] = format: cell-based
# in vitro [10] = details: African green monkey
# SARS-CoV-2 trVLP [11] = assay: microbe, parasite or virus in culture; details: Severe acute respiratory syndrome coronavirus 2, read-out: EC50 SARS-CoV-2 trVLP
# in vitro [12] = details: human
# in vitro [13] = details: human, Caco-2
# [14] = Middle East respiratory syndrome-related coronavirus, Huh-7, read-out: EC50 against MERS-CoV pseudotyped virus
# [15] = Severe acute respiratory syndrome coronavirus 2, Vero C1008, read-out: SARS-CoV-2 (Vero E6) EC50
# [16] = Severe acute respiratory syndrome coronavirus
# [17] = Severe acute respiratory syndrome coronavirus 2, 24 h, read-out: EC50 against SARS-CoV-2 pseudotyped virus
# [18] = Porcine epidemic diarrhea virus, Huh-7, read-out: EC50 against PEDV
# [19] = CC50, cytotoxicity to Huh 7 cells (Fig. 4B, SADS-CoV panel)
# [20] = Huh-7, read-out: EC50 against SADS-CoV
# [21] = Severe acute respiratory syndrome coronavirus 2, Vero C1008, read-out: EC50 against diverse SARS-CoV-2-related viruses (summary statement)
# [22] = Vero C1008, 48 h, read-out: Percentage of Inhibition (%)
Compound,"Time of addition of anti-GX_P2V activity, Entry (GX_P2V [2])","Time of addition of anti-GX_P2V activity, Full-time (GX_P2V [2])","Time of addition of anti-GX_P2V activity, Post-entry (GX_P2V [2])","SI (SARS-CoV-2 trVLP, Caco 2-N) (SARS-CoV-2 trVLP [6])","Time of addition of anti-SARS-CoV-2 trVLPs activity, Entry (SARS-CoV-2 trVLP [9])","Time of addition of anti-SARS-CoV-2 trVLPs activity, Full-time (SARS-CoV-2 trVLP [9])","Time of addition of anti-SARS-CoV-2 trVLPs activity, Post-entry (SARS-CoV-2 trVLP [9])","EC50 [1, 14] [nM]",CC50 at 48 h (in vitro [10]) [nM],"EC50 [3, 15] [nM]",EC50 (SARS-CoV-2 trVLP [11]) [nM],"EC50 [4, 16] [nM]","EC50 [5, 17] [nM]",EC50 (PEDV strain CV777; [18]) [nM],CC50 (in vitro [12]) [nM],CC50 (in vitro [12]; [19]) [nM],CC50 at 48 h (in vitro [13]) [nM],"EC50 [7, 20] [nM]",EC50 (GX_P2V [8]; [21]) [nM],inhibition at 0.39 µM (GX_P2V [8]; [22]) [%],also measured
cycleanine,60.950 and 60.215 and 58.803,92.758 and 93.389 and 93.191,62.451 and 61.926 and 63.133,> 32.68,37.174 and 37.913 and 46.924,60.248 and 61.546 and 62.312,56.735 and 54.305 and 57.336,,,,,,,,,,,,,,EC50 ([1]; read-out: EC50 against MERS-CoV pseudotyped virus): 2450 nM; EC50 ([3]; read-out: SARS-CoV-2 (Vero E6) EC50): 8910 nM; CC50 (Huh 7 cells): > 12500 nM; EC50 [4]: 3200 nM; EC50 ([5]; read-out: EC50 SARS-CoV-2pseudotypedvirus): 6540 nM; EC50 (SARS-CoV-2 trVLP [6]; read-out: EC50 SARS-CoV-2 trVLP): 1530 nM; EC50 (PEDV strain CV777; read-out: EC50 against PEDV): 340 nM; EC50 ([7]; read-out: EC50 against SADS-CoV): 2770 nM; Percentage of Inhibition (%) (GX_P2V [8]): 100%; EC50 (GX_P2V [8]; read-out: EC50 against GX_P2V): 1490 nM
"COc1ccc2cc1Oc1ccc(cc1)C[C@H]1c3cc(c(OC)cc3CCN1C)Oc1c(O)c(OC)cc3c1[C@H](C2)N(C)CC3 [Fangchinoline, fangchinoline]",98.527 and 98.293 and 98.495,99.636 and 99.587 and 99.561,96.715 and 95.065 and 93.301,24.05,64.788 and 62.324 and 70.383,98.422 and 98.513 and 99.025,80.036 and 76.348 and 75.577,4470,> 12500,5010,1930,1730,1160,200,12400,> 12500,46400,2230,< 2000,21,"Percentage of Inhibition (%), SARS-CoV-2 pseudotyped virus [5]: 100%; Percentage of Inhibition (%) (SARS-CoV-2 trVLP [6]): 100%; inhibition at 0.49485 µM (GX_P2V [8]; [22]): 97.5%; inhibition at 0.78 µM (GX_P2V [8]; [22]): 14%; inhibition at 0.79588 µM (GX_P2V [8]; [22]): 95.4%; inhibition at 1.09691 µM (GX_P2V [8]; [22]): 100%; EC50 (GX_P2V [8]; Vero C1008, read-out: EC50 GX_P2V): 1970 nM"
"COc1ccc2cc1Oc1ccc(cc1)C[C@H]1c3c(cc4c(c3Oc3cc5c(cc3OC)CCN(C)[C@@H]5C2)OCO4)CCN1C [Cepharanthine, reference compound]",88.370 and 86.873 and 86.696,99.145 and 99.093 and 99.139,88.656 and 88.646 and 88.662,> 31.25,63.189 and 64.430 and 67.089,95.064 and 95.621 and 95.146,74.095 and 72.335 and 71.421,2190,> 12500,2190,1600,1370,740,200,11000,> 12500,> 50000,1030,< 2000,20.4,"Percentage of Inhibition (%) [1]: 24.735%; Percentage of Inhibition (%) [4]: 99.382% and 89.647%; Percentage of Inhibition (%) (PEDV strain CV777): 99.988%; EC50 ([7]; Huh-7, read-out: EC50 SADS): 400 nM; inhibition at 0.193125 µM (GX_P2V [8]; [22]): 46.4%; inhibition at 0.49485 µM (GX_P2V [8]; [22]): 77.8%; inhibition at 0.79588 µM (GX_P2V [8]; [22]): 96.7%; inhibition at 1.09691 µM (GX_P2V [8]; [22]): 100%; EC50 (GX_P2V [8]; Vero C1008, read-out: EC50 against GX_P2V): 1780 nM"
